Measured values reported in publication PMC9944328 (Nature Communications, 2023).
Several values for one entry are separate records, joined by “and”; a condition that tells them apart may be missing. Equal entries are not always repeated.

How the values were obtained:
[1] = target: SSTR2 mutants (Homo sapiens, UniProt P30874, Y312A);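 further: Read-out is the BRET ratio between Nluc-fused β-arrestin 1 and the early endosome marker FYVE-mVenus, measured after ligand addition with coelenterazine h as substrate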
[2] = target: SSTR2 (Homo sapiens, UniProt P30874); experiment: NanoBiT β-arrestin 1 recruitment assay, HEK293 (SSTR2 wild-type);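 on Best-fit Bottom: percent of maximal wild-type SSTR2 response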;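 on Best-fit Top: percent of maximal wild-type SSTR2 response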;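 on Bottom (best-fit): percent of maximal wild-type response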;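 on Span (best-fit value): percent of maximal wild-type response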;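 on Span (best-fit): percent of maximal wild-type response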;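 on Top (best-fit value): percent of maximal wild-type response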;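 on Top (best-fit): percent of maximal wild-type response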; assay type: cell-based; parameters: Human full-length SSTR wild-type and mutant vectors were C-terminally fused; expressed in transfected cells; host or cells: HEK293; Best-fit values Bottom / Best-fit values Top / Best-fit values Span / Best-fit Bottom / Best-fit Top / Best-fit Span: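 percent of maximal wild-type SSTR2 response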; conditions: for β-arrestin recruitment: compared with octreotide, Fig. 1c
Experimental: The NanoBiT β-arrestin 1 recruitment assays were carried out according to the method described previously. […] Human full-length SSTR wild-type and mutant vectors were C-terminally fused with a 15-amino acid flexible linker and the small fragment (SmBiT). HEK293 cells were seeded into six-well microplates at a density of 1.0 × 10^6 cells/well and cultured for 24 h at 37 °C with 5% CO2. After that, cells were co-transfected with pcDNA3.1+ vectors encoding SSTR wild-type or mutants and human β-arrestin 1. After transfecting for 24 h, the transfected cells were suspended and seeded into white 96-well plates, and then cultured at 37 °C overnight. After that the medium in each well was exchanged for 90 μl of 0.01% bovine serum albumin containing 20 μl of 50 μM coelenterazine h (Carbosynth) diluted in the HBSS assay buffer and incubated for 40 min at room temperature. Then, ligands diluted in the assay buffer was added to each well and the luminescence intensity was measured using the Synergy H1 microplate reader and detected at room temperature in a time period. All data presented are means of at least three independent experiments.

[3] = SSTR2-WT control of I284A-1, T194A-1, I195A-3, L99A-3, Q102A-1
[4] = SSTR2-WT control of I284A-2/-3, T194A-2/-3, L99A-1/-2, Q102A-3

Chain of SSTR2 (P30874 whole entry, the tested form may be a part): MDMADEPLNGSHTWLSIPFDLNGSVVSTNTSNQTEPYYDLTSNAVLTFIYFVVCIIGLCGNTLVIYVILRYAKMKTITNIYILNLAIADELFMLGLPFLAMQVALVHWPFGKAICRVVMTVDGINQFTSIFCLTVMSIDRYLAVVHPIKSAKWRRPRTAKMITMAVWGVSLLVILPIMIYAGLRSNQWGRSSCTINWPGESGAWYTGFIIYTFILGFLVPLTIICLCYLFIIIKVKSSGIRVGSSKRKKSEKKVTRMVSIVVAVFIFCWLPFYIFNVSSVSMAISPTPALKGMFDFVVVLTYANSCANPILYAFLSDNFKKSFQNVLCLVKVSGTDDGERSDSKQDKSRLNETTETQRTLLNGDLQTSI
Chain of SSTR2 (P49407 whole entry partner, the tested form may be a part): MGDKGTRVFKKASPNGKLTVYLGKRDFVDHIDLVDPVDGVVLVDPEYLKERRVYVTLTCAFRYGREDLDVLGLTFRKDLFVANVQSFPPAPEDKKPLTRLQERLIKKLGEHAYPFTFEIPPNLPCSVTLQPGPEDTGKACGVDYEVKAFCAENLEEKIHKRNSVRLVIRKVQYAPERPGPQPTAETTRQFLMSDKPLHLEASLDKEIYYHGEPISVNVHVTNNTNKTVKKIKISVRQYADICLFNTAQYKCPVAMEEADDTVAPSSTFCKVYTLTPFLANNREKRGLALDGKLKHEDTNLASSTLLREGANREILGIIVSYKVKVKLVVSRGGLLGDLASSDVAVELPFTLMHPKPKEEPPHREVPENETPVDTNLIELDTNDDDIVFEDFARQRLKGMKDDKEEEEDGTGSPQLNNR
Chain of SSTR2 mutants (P30874 whole entry Y312A, the tested form may be a part): as the sequence (P30874 whole entry, the tested form may be a part) above, with Y312A counted along it

## N#Cc1cccc(-c2ccc3ncc(-c4cc(F)cc(F)c4)c(N4CCC(N)CC4)c3c2)c1O [paltusotine]
[1]
  Emax: 41.3 ± 3%
[2]; Best-fit EC50, SSTR2-WT control of I284A-1, T194A-1, I195A-3, L99A-3
  EC50: 420 nM
[2]; Best-fit EC50, SSTR2-WT control of I284A-2/-3, T194A-2/-3, L99A-1/-2
  EC50: 455 nM
[2]; Best-fit EC50, SSTR2-WT-1 control of I195A-1
  EC50: 306 nM
[2]; Best-fit EC50, SSTR2-WT-1 control of Y50A-1
  EC50: 216 nM
[2]; Best-fit EC50, SSTR2-WT-2 control of I195A-2
  EC50: 295 nM
[2]; Best-fit EC50, SSTR2-WT-2 control of Y50A-2
  EC50: 272 nM
[2]; Best-fit EC50, SSTR2-WT-3 control of Y50A-3
  EC50: 306 nM
[2]; EC50 (best-fit value), SSTR2-WT, run WT-1
  EC50: 455 nM and 420 nM and 141 nM and 1270 nM and 292 nM
[2]; EC50 (best-fit value), SSTR2-WT, run WT-2
  EC50: 455 nM and 399 nM and 131 nM and 141 nM and 613 nM
[2]; EC50 (best-fit value), SSTR2-WT, run WT-3
  EC50: 726 nM and 216 nM and 292 nM and 131 nM and 538 nM and 455 nM
[2]; EC50 (best-fit), WT-1 (D122A set)
  EC50: 420 nM
[2]; EC50 (best-fit), WT-1 (F127A set)
  EC50: 307 nM
[2]; EC50 (best-fit), WT-1 (I130A set)
  EC50: 292 nM
[2]; EC50 (best-fit), WT-1 (Q102A set)
  EC50: 420 nM
[2]; EC50 (best-fit), WT-1 (Q126A set)
  EC50: 306 nM
[2]; EC50 (best-fit), WT-1 (V103A set)
  EC50: 306 nM
[2]; EC50 (best-fit), WT-2 (D122A set)
  EC50: 399 nM
[2]; EC50 (best-fit), WT-2 (F127A set)
  EC50: 272 nM
[2]; EC50 (best-fit), WT-2 (I130A set)
  EC50: 141 nM
[2]; EC50 (best-fit), WT-2 (Q102A set)
  EC50: 339 nM
[2]; EC50 (best-fit), WT-2 (Q126A set)
  EC50: 455 nM
[2]; EC50 (best-fit), WT-2 (V103A set)
  EC50: 295 nM
[2]; EC50 (best-fit), WT-3 (D122A set)
  EC50: 455 nM
[2]; EC50 (best-fit), WT-3 (F127A set)
  EC50: 292 nM
[2]; EC50 (best-fit), WT-3 (Q102A set)
  EC50: 455 nM
[2]; EC50 (best-fit), WT-3 (Q126A set)
  EC50: 455 nM
[2]; EC50 (best-fit), WT-3 (V103A set)
  EC50: 306 nM
[2]; EC50 (β-arrestin1 recruitment), best-fit, WT-1 (SSTR2-WT set up beside each mutant)
  EC50: 420 nM and 455 nM and 529 nM
[2]; EC50 (β-arrestin1 recruitment), best-fit, WT-2 (SSTR2-WT set up beside each mutant)
  EC50: 455 nM and 420 nM and 613 nM
[2]; EC50 (β-arrestin1 recruitment), best-fit, WT-3 (SSTR2-WT set up beside each mutant)
  EC50: 420 nM and 538 nM
[2]; EC50, β-arrestin recruitment, SSTR2 WT, n=6
  EC50: 406 ± 5.62 nM
[2]; HEK293
  Emax: 100%
[2]; SSTR2-WT control of I284A-1, T194A-1, I195A-3, L99A-3
  Best-fit Span: 106.9
[2]; [3]
  Best-fit Bottom: 1.007
  Best-fit LogEC50: -6.376
  Best-fit Top: 107.9
[2]; SSTR2-WT control of I284A-2/-3, T194A-2/-3, L99A-1/-2
  Best-fit Span: 106.4
[2]; [4]
  Best-fit Bottom: 0.9805
  Best-fit LogEC50: -6.342
  Best-fit Top: 107.4
[2]; SSTR2-WT-1 control of I195A-1
  Best-fit Bottom: 0.5008
  Best-fit LogEC50: -6.514
  Best-fit Span: 104.2
  Best-fit Top: 104.7
[2]; SSTR2-WT-1 control of Y50A-1
  Best-fit Bottom: -1.342
  Best-fit LogEC50: -6.666
  Best-fit Span: 105.2
  Best-fit Top: 103.8
[2]; SSTR2-WT-2 control of I195A-2
  Best-fit Bottom: 0.4349
  Best-fit LogEC50: -6.531
  Best-fit Span: 102.7
  Best-fit Top: 103.1
[2]; SSTR2-WT-2 control of Q102A-2
  Best-fit Bottom: -0.0463
  Best-fit LogEC50: -6.469
[2]; SSTR2-WT-2 control of Y50A-2
  Best-fit Bottom: -1.812
  Best-fit LogEC50: -6.566
  Best-fit Span: 107.5
  Best-fit Top: 105.7
[2]; SSTR2-WT-3 control of Y50A-3
  Best-fit Bottom: -2.538
  Best-fit LogEC50: -6.515
  Best-fit Span: 108.6
  Best-fit Top: 106.1
[2]; SSTR2-WT, run WT-1
  Span (best-fit value): 106.4 and 106.9 and 102.6 and 115.9 and 106
  Top (best-fit value): 107.4 and 107.9 and 101.5 and 113.5 and 105.5
[2]; SSTR2-WT, run WT-2
  Span (best-fit value): 106.4 and 103.6 and 103.9 and 102.6 and 106.8
  Top (best-fit value): 107.4 and 106.9 and 102.6 and 101.5 and 107.6
[2]; SSTR2-WT, run WT-3
  Span (best-fit value): 112.3 and 105.2 and 106 and 103.9 and 104.9 and 106.4
  Top (best-fit value): 109 and 103.8 and 105.5 and 102.6 and 107.1 and 107.4
[2]; SSTR2 WT
  β-arrestin recruitment: lower efficacy of β-arrestin recruitment
[2]; SSTR2 WT, listed as Paltusotine
  β-arrestin recruitment: lower β-arrestin recruitment compared with octreotide
[2]; WT-1 (D122A set)
  Bottom (best-fit): 1.007
  LogEC50 (best-fit): -6.376
  Span (best-fit): 106.9
  Top (best-fit): 107.9
[2]; WT-1 (F127A set)
  Bottom (best-fit): -9.341
  LogEC50 (best-fit): -6.513
  Span (best-fit): 113.7
  Top (best-fit): 104.3
[2]; WT-1 (I130A set)
  Bottom (best-fit): -0.4941
  LogEC50 (best-fit): -6.535
  Span (best-fit): 106
  Top (best-fit): 105.5
[2]; WT-1 (Q102A set)
  Span (best-fit): 106.9
[2]; WT-1 (Q126A set)
  Bottom (best-fit): 0.5008
  LogEC50 (best-fit): -6.514
  Span (best-fit): 104.2
  Top (best-fit): 104.7
[2]; WT-1 (V103A set)
  Bottom (best-fit): 0.5008
  LogEC50 (best-fit): -6.514
  Span (best-fit): 104.2
  Top (best-fit): 104.7
[2]; WT-2 (D122A set)
  Bottom (best-fit): 3.261
  LogEC50 (best-fit): -6.399
  Span (best-fit): 103.6
  Top (best-fit): 106.9
[2]; WT-2 (F127A set)
  Bottom (best-fit): -1.812
  LogEC50 (best-fit): -6.566
  Span (best-fit): 107.5
  Top (best-fit): 105.7
[2]; WT-2 (I130A set)
  Bottom (best-fit): -1.026
  LogEC50 (best-fit): -6.849
  Span (best-fit): 102.6
  Top (best-fit): 101.5
[2]; WT-2 (Q126A set)
  Bottom (best-fit): 0.9805
  LogEC50 (best-fit): -6.342
  Span (best-fit): 106.4
  Top (best-fit): 107.4
[2]; WT-2 (V103A set)
  Bottom (best-fit): 0.4349
  LogEC50 (best-fit): -6.531
  Span (best-fit): 102.7
  Top (best-fit): 103.1
[2]; WT-3 (D122A set)
  Bottom (best-fit): 0.9805
  LogEC50 (best-fit): -6.342
  Span (best-fit): 106.4
  Top (best-fit): 107.4
[2]; WT-3 (F127A set)
  Bottom (best-fit): -0.4941
  LogEC50 (best-fit): -6.535
  Span (best-fit): 106
  Top (best-fit): 105.5
[2]; WT-3 (I130A set)
  Bottom (best-fit): -1.282
  LogEC50 (best-fit): -6.883
  Span (best-fit): 103.9
  Top (best-fit): 102.6
[2]; WT-3 (Q102A set)
  Span (best-fit): 106.4
[2]; WT-3 (Q126A set)
  Bottom (best-fit): 0.9805
  LogEC50 (best-fit): -6.342
  Span (best-fit): 106.4
  Top (best-fit): 107.4
[2]; WT-3 (V103A set)
  Bottom (best-fit): 0.5008
  LogEC50 (best-fit): -6.514
  Span (best-fit): 104.2
  Top (best-fit): 104.7
[2]; best-fit, WT-1
  Bottom (β-arrestin1 recruitment): 1.007 and 0.9805 and 0.9636
  LogEC50 (β-arrestin1 recruitment): -6.376 and -6.342 and -6.276
  Span (β-arrestin1 recruitment): 106.9 and 106.4 and 106.5
  Top (β-arrestin1 recruitment): 107.9 and 107.4 and 107.5
[2]; best-fit, WT-2
  Bottom (β-arrestin1 recruitment): 0.9805 and 1.007 and 0.8106
  LogEC50 (β-arrestin1 recruitment): -6.342 and -6.376 and -6.212
  Span (β-arrestin1 recruitment): 106.4 and 106.9 and 106.8
  Top (β-arrestin1 recruitment): 107.4 and 107.9 and 107.6
[2]; best-fit, WT-3
  LogEC50 (β-arrestin1 recruitment): -6.342 and -6.376 and -6.269
  Span (β-arrestin1 recruitment): 106.4 and 106.9 and 104.9
  Top (β-arrestin1 recruitment): 107.4 and 107.9 and 107.1
[2]; β-arrestin recruitment EC50, SSTR2 WT
  Fold of WT: 1
